Source: patent publication EP4656642A1, “ESTROGEN RECEPTOR PROTEOLYSIS TARGETING CHIMERA COMPOUND AND USE THEREOF” (GAN & LEE PHARM CO., LTD, priority 2023, dated 2024)

Experiments:
Format in all cases: cell-based
T-47D cells = assay: Inhibition of cell proliferation in T-47D cells (CCK-8, 6 days); conditions: 6 days of treatment
Text: Test Example 2: Inhibitory effect of the PROTAC compounds provided in the present disclosure on cell proliferation in T-47D cells (source ATCC)
The complete medium required for T-47D cells was 1640 ( ATCC, Product number: A10491-01) basal medium containing 10% fetal bovine serum. T-47D cells were inoculated in 96-well plates at a density of 3,000 cells/well, and different concentrations of the PROTAC compounds 1-55 provided in the examples of the present disclosure and a positive control sample ARV-471 (source: Innochem) were prepared to treat cells, and the cells were treated at 37°C in a cell culture incubator with 5% CO2 for 6 days. Cell viability was detected using a CCK-8 kit (Beyotime, Product number: C0040) according to the manufacturer's instructions. […] Table 2 IC50 values for inhibition of the proliferation of T-47D cells by the PROTAC compounds provided by the present disclosure and the positive control sample

MCF-7 cells = assay: Inhibition of cell proliferation of MCF-7 cells (CCK-8, 9 days)
In short: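 MCF-7 cells seeded at 800 cells/well in DMEM with 10% FBS, exposed to a range of compound concentrations for 9 days at 37°C, 5% CO2. Viability read by CCK-8; IC50 derived for proliferation inhibition.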

ERα [1] = biological target: T1, ERα (Homo sapiens, UniProt P03372); assay: Degradation of ERα in MCF-7 cells (immunoblotting, 4 h)
T1 sequence (P03372 1-595): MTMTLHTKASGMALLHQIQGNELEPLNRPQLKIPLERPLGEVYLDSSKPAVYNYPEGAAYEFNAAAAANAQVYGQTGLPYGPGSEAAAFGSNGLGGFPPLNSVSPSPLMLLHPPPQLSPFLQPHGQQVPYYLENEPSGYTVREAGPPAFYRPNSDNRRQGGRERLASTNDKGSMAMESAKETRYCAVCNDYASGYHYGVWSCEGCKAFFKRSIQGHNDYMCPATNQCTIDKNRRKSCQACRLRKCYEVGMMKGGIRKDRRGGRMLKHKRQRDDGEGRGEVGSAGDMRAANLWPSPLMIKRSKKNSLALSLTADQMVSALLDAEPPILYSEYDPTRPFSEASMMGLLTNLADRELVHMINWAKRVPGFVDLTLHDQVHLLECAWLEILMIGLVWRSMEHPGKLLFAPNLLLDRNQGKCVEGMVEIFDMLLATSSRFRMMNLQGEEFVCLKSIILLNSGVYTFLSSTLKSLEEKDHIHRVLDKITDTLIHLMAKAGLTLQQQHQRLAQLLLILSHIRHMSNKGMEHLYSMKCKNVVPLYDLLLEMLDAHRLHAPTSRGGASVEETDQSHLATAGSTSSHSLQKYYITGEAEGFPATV
In short: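 MCF-7 cells treated 4 h at 37°C with compounds at 0.15-1000nM final. ERα in lysates measured by immunoblot, with band grayscale normalized to an internal reference protein. Degradation rate calculated against DMSO-treated control.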

ERα [2] = biological target: T1, ERα; assay: Degradation of ERα in T-47D cells (immunoblotting, 4 h); design: host or cells: T-47D
In short: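 T-47D cells were treated with compound (final 0.15-1000 nM, DMSO) for 4 h at 37°C, 5% CO2. Cells were lysed in RIPA buffer with protease inhibitor, and ERα protein in the cleared lysate was measured by immunoblotting.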

[3] = treated for 9 days, CCK-8 kit (Table 6)

Row | SMILES | IC50 (T-47D cells; Table 3) [nM] | IC50 (MCF-7 cells; [3]) [nM] | Degradation rate (%) of ERα in MCF-7 cells (ERα [1]; 1nM compound) [%] | Degradation rate (%) of ERα in MCF-7 cells (ERα [1]; 10nM compound) [%] | Degradation rate (%) of ERα in T-47D cells (ERα [2]; 1nM compound) [%] | Degradation rate (%) of ERα in T-47D cells (ERα [2]; 10nM compound) [%] | IC50 (T-47D cells; Table 2) [nM] | IC50 (MCF-7 cells; 9 days of treatment, CCK-8, Table 5) [nM]
1 | C[C@@H]1CC2(CCN(c3ccc([C@@H]4c5ccc(O)cc5CC[C@@H]4c4ccccc4)cc3)CC2)CN1CC(=O)N1CCC2(CC1)COc1c2ccc2c1CN(C1CCC(=O)NC1=O)C2=O (some centres unmarked) [A90] | 1.78 | 52.8 | 50 | 72 | 42 | 79 | – | –
2 | O=C1CCC(N2Cc3ccc4c(c3C2=O)OC2(CC4)CCN(CC3CCN(c4ccc([C@@H]5c6ccc(O)cc6CC[C@@H]5c5ccccc5)cc4)CC3)CC2)C(=O)N1 (some centres unmarked) [H7] | 10.4 | 330 | 12 | -2 | -11 | -15 | – | –
3 | O=C1CCC(N2C(=O)c3cc4c(cc3C2=O)OC2(CC4)CN(CC3CCC4(CC3)CCN(c3ccc([C@@H]5c6ccc(O)cc6CC[C@@H]5c5ccccc5)cc3)CC4)C2)C(=O)N1 (some centres unmarked) [A41] | 23 | 33 | -9 | -18 | 8 | 17 | – | –
4 | CCN(CC1CCN(c2ccc([C@@H]3c4ccc(O)cc4CC[C@@H]3c3ccccc3)cc2)CC1)[C@H]1CC[C@@H](C(=O)N2CCC3(CC2)COc2c3ccc3c2CN(C2CCC(=O)NC2=O)C3=O)CC1 (some centres unmarked) [N8] | 6.6 | 25400 | -2 | 31 | 21 | 55 | – | –
5 | O=C1CCC(N2Cc3c(ccc4c3OCC43CCN(C4CCN(C5CC6(CCN(c7ccc([C@@H]8c9ccc(O)cc9CC[C@@H]8c8ccccc8)cc7)CC6)C5)[C@@H](C(=O)N5CC(F)(F)C5)C4)CC3)C2=O)C(=O)N1 (some centres unmarked) [A98] | 1.19 | 5.12 | 48 | 90 | 51 | 83 | – | –
6 | O=C1CCC(N2Cc3c(ccc4c3OCC43CCN(C(=O)CC4CCN(C(=O)C5CCN(c6ccc([C@@H]7c8ccc(O)cc8CC[C@@H]7c7ccccc7)cc6)CC5)CC4)CC3)C2=O)C(=O)N1 (some centres unmarked) [A123] | 1.34 | 164 | 29 | 61 | 66 | 84 | – | –
7 | O=C1CCC(N2Cc3c(ccc4c3OCC43CCN(C(=O)C4CCC(N5CCC(C#Cc6ccc([C@@H]7c8ccc(O)cc8CC[C@@H]7c7ccccc7)cc6)CC5)CC4)CC3)C2=O)C(=O)N1 (some centres unmarked) [A101] | 0.91 | 850 | 52 | 61 | 44 | 45 | – | –
8 | O=C1CCC(N2Cc3c(ccc4c3OCC43CCN(C(=O)c4ccc(CN5CCN(c6ccc([C@@H]7c8ccc(O)cc8CC[C@@H]7c7ccccc7)cc6)CC5)cn4)CC3)C2=O)C(=O)N1 (some centres unmarked) [B41] | 0.75 | 29200 | 59 | 53 | 66 | 74 | – | –
9 | O=C1CCC(N2Cc3c(ccc4c3OCC43CCN(C(=O)C4CCC(CN5CCN(c6ccc(C7c8ccc(O)cc8CCC7c7ccccc7)cc6)CC5)CC4)CC3)C2=O)C(=O)N1 (centres unmarked) [C5] | 1.3 | 6.7 | 43 | 66 | 52 | 77 | – | –
10 | O=C1CCC(N2Cc3c(ccc4c3OCC43CCN(C4CCN(C(=O)C5CCN(c6ccc([C@@H]7c8ccc(O)cc8CC[C@@H]7c7ccccc7)cc6)CC5)[C@H](C(=O)N5CCC5)C4)CC3)C2=O)C(=O)N1 (some centres unmarked) [H45] | 1.47 | 16.2 | 25 | 61 | 58 | 78 | – | –
11 | O=C1CCC(N2C(=O)c3cc4c(cc3C2=O)C2(CCN(C3CCC5(CC3)CCN(c3ccc(C6c7ccc(O)cc7CCC6c6ccccc6)cc3)CC5)CC2)CO4)C(=O)N1 (centres unmarked) [A18] | – | – | – | 20 | – | 14 | 68 | 170
12 | O=C1CCC(N2Cc3c(ccc4c3OCC43CCN(C(=O)[C@H]4CC[C@@H](N(CC5CC5)C5CCN(c6ccc([C@@H]7c8ccc(O)cc8CC[C@@H]7c7ccccc7)cc6)CC5)CC4)CC3)C2=O)C(=O)N1 (some centres unmarked) [B48] | 4.35 | 33.5 | 63 | 74 | 61 | 80 | – | –
13 | O=C1CCC(N2Cc3cc4c(cc3C2=O)OCC42CCN(C3CCC4(CC3)CN(c3ccc([C@@H]5c6ccc(O)cc6CC[C@@H]5c5ccccc5)cc3)C4)CC2)C(=O)N1 (some centres unmarked) [K17] | 1.54 | 70 | 14 | 35 | 23 | 66 | – | –
14 | CN(C(=O)CN1CCC2(CC1)COc1c2ccc2c1C(=O)N(C1CCC(=O)NC1=O)C2=O)C1CCC2(CC1)CCN(c1ccc([C@@H]3c4ccc(O)cc4CC[C@@H]3c3ccccc3)cc1)CC2 (some centres unmarked) [C15] | 9.07 | 406 | 18 | 45 | 41 | 71 | – | –
15 | O=C1CCC(N2C(=O)c3cc4c(cc3C2=O)OC2(CC4)CN(C3CCC4(CC3)CN(c3ccc(C5c6ccc(O)cc6CCC5c5ccccc5)cc3)C4)C2)C(=O)N1 (centres unmarked) [B7] | – | > 100 | – | -6 | – | 19 | 1000 | –
16 | C[C@H]1CN(C2CC3(CCN(c4ccc([C@@H]5c6ccc(O)cc6CC[C@@H]5c5ccccc5)cc4)CC3)C2)CC[C@H]1N1CCC2(CC1)COc1c2ccc2c1CN(C1CCC(=O)NC1=O)C2=O (some centres unmarked) [H39] | 3.38 | 65.2 | 20 | 71 | 15 | 64 | – | –
